Experimental findings from US9994862B2, “Rice resistant to HPPD and ACCase inhibiting herbicides” (priority 2011, dated 2018) are described below.

Entries after “also recorded” stand apart in the source; their conditions may differ.

In assay [1] the test system is unmutated line P1003. The assay is described as follows: Mesotrione tolerance trials / herbicide bioassay. In kind it is in vivo, rice. An excerpt: (§1) Selection of material inheriting mesotrione tolerance is accomplished by a simple herbicide bioassay. A high rate of mesotrione (at least 420 gm ai/ha) is applied allowing differentiation of heterozygous individuals from homozygous individuals and the tolerance level of the […] line from the inherent tolerance level in the background of some types of rice. In one example a rate of 105 gm ai/ha is applied followed three weeks later by a second application of 630 gm ai/ha. In another example a rate of 420 gm ai/ha is applied in a single application. Yet another example entails applying the herbicide at a rate of 630 gm ai/ha. Herbicide applications are done at the three to four leaf stage of seedling growth. The ideal situation is to have also planted near or within the plants to be selected a set of plants from the original mutant mesotrione tolerant donor line ML0831266-03093, (FIG. 18A) a row of plants of the wild-type of the […] line, P1003 (FIG. 18B), and a row of the line involved as the other parent in the cross (FIG. 18C). These control lines allow easy differentiation for inheritance of the tolerance provided by the ML0831266-03093 mutant line through comparison of the response in the plants to be selected with the control lines. Only plants that live and are relatively healthy will have inherited and be homozygous for the tolerance level provided by the ML0831266-03093 mutant line (FIG. 18A).
(§2) The mutant line is planted in rows or alternatively whole plots are planted and rows of the unmutated line (P1003) and other types of rice or whole plots are planted. Mesotrione is applied pre-emergence or alternatively it is applied post-emergence at the three to four leaf stage of the rice plants. Various rates of mesotrione are applied pre-emergence, pre-emergence followed by post-emergent, or post-emergent with a single or sequential application. Post-emergent applications are applied at the 3-4 leaf stage of the rice.
(§3) Seedlings of size 3 to 4 leaves are sprayed with mesotrione herbicide. In one set of 89 plants mesotrione is first applied at 105 gm ai/ha killing 23 plants. Both the mutant line control ML0831266-03093 and the unmutated line P1003 survived the herbicide application while the unmutated line R0146 was killed. The surviving plants including some additional plants making a total of 95 are then sprayed with another treatment of mesotrione at a rate of 630 gm ai/ha killing or injuring 67 while 28 survived. (FIG. 23) The surviving ratio of plants to those killed or injured fits a one quarter ratio with a chi squared value of 1.03, well within the expected for a single recessive gene. Another set of F2 individuals of size 78 individuals are sprayed with a single application of mesotrione herbicide at a rate of 420 gm ai/ha resulting in 26 plants surviving also fitting in the expected one quarter ratio for a single recessive gene with a chi square value of 2.88 (Table 2).

The subject of assay [2] is unmutated line R0146. Put plainly: Mesotrione tolerance trials / herbicide bioassay. Type of assay: in vivo, rice.
From the text: as §1, §2, §3

For assay [3], the system named is common rice weeds. Put plainly: Weed control by mesotrione in rice plots. In kind it is in vivo. The following applies: mesotrione alone; especially pre-plant or 2x the labeled rate of 210 gmai/ha. The protocol:
FIG. 6A-6B is a photograph of results of trait tolerance trials; weed control by mesotrione herbicide applied pre-planting was evaluated; the plots were planted with a hybrid of the HPPD tolerant line ML0831266-03093; just before planting, the plot on the right FIG. 6B received an application of mesotrione at 210 gmai/ha; the plot on the left FIG. 6A had no herbicide applied either pre-plant or post-emergence; pictures were taken four weeks after planting showing differences in weed appearance.
Rice is tolerant to certain ACCase inhibitor herbicides, for example cyhalofop is registered for use in rice. However other ACCase herbicides kill or severely injure rice to varying degrees. […] The applied rates of both types of herbicides giving the weed control are well within the tolerance level of the respective ACCase and HPPD tolerant lines including the combined lines carrying tolerance to both HPPD and ACCase herbicides.
Further validation of the trait involved testing the mutant line ML0831266-03093 in the presence of common rice weeds. […] This level of grass weed control was completely unexpected as mesotrione is labeled for controlling broadleaf weeds in monocot crops.

For assay [4], the system named is line PL1214418M2-73009. The assay is described as follows: Mesotrione trait tolerance trial. In kind it is in vivo, rice. The protocol:
Two trials were conducted to measure recovery of tolerance to both ACCase and HPPD herbicides in the new line PL1214418M2-73009. Recovery of tolerance in the line combining the two traits will illustrate that the traits are heritable and can be used to produce new varieties and hybrids carrying herbicide resistance. These trials are important as often times it is difficult to recover complex QTLs for quantitative traits or in some cases a traits response is dependent upon the genetic background. In the first trail the lines resistance to mesotrione (HPPD herbicide) was evaluated by planting line PL1214418M2-73009, the HPPD resistant line ML0831266-03093 and wild-type rice line P1003 and R0146 in plots (5 feet×10 feet). […]
During the breeding process to develop new lines (PL1214418M2-80048 and PL1214418M2-73009) with resistance/tolerance to HPPD and ACCase herbicides, two other lines were also investigated to determine the contribution of the HPPD tolerance mutation and the HPPD tolerance native gene. […] The tolerance effect of each gene was measured by growing the lines in single rows including the newly developed line PL1214418M2-73009 that carries both the HPPD tolerance from the mutation and the non-induced tolerance, the HPPD tolerant line ML0831266-0309, and the non-induced parent line P1003. […]

Where [5] appears, read: one application at 105 gai/ha followed by a second application of 630 gai/ha.

On to `CS(=O)(=O)c1ccc(C(=O)C2C(=O)CCCC2=O)c([N+](=O)[O-])c1` [mesotrione], for which the figures for the survival after mesotrione entry in assay [1] (higher rates), in assay [1] (low rate 105 gm ai/ha) and in assay [2] (low rate 105 gm ai/ha) were “killed or severally injured”, “survived” and “killed”, respectively. For the same compound, the “response of the rice to mesotrione” value in assay [1] (setting [5]) is on record as “severely injured”; in assay [2] (setting [5]), “completely killed”. In addition, the “weed control by mesotrione” value in assay [3] is reported as “well controlled; also recorded: prevalent control; also recorded: Control of common weeds in rice was also achieved”. Moreover, the “tolerance to mesotrione compared with the original HPPD tolerant line ML0831266-03093” value in assay [4] (0.5x to 4x of the labeled rate 210 gmai/ha) is “equivalent tolerance; also recorded: the same response”. Also, the tolerance to mesotrione result in assay [4] (in vivo) is on record as “tolerance”.
